Assays:
[1] = tested on: conscious rabbit; experiment: arousal reaction in the EEG (electroencephalograph) of a conscious rabbit; format: in vivo
[2] = biological target: muscarinic receptors; experiment: Receptor binding studies (radioligand L(+)cis-[2-methyl-3H]-N,N,N-trimethyl-1,3-dioxolan-4-methanammonium-iodide, NET-647); conditions: cerebral cortex (rat); radioligand NET-647; tested as maleate (MA) or oxalate (OX) salt
Description: The compounds of formulae I and Ia have valuable pharmacological properties. Thus, in bonding studies, they show affinities with muscarinic receptors and muscarbin-agonistic GTP-shifts (GTP=guanosintriphosphate). (Birdshall, N. I. M., E. C. Hulme and J. M. Stockton 1984 in T.I.P.S. Supplement, Proc. Internat. Symposium on Subtypes of Muscarinic Receptors, Ed. Hirschowitz, Hammer, Giacchetti, Keirns, Levine; Elsevier p. 4-8).
The receptor binding studies were carried out according to: A. Closse, H. Bittiger, D. Langenegger and A. Wanner, Naunyn-Schmiedeberg's Arch. Pharmacol. 335, 372-377 (1987).
Receptor binding studies
L(+)cis-[2-methyl-^3 H]-N,N,N-trimethyl-
1,3-dioxolan-4-methanammonium-iodide
NET-647, Messrs. NEN (New England
Organ: Cerebral cortex (rat)

| Ki [2] [nM] | Structure (SMILES) | arousal reaction typical of cholinomimetics in the EEG ([1]; 1 mg/kg and 3 mg/kg i.v.) | arousal reaction typical of cholinomimetics in the EEG ([1]; 0.1 mg/kg and 0.3 mg/kg i.v.) |
| --- | --- | --- | --- |
| 210 | CCOCC1=CCN(C)CC1 [Example 2, 4-Ethoxymethyl-1-methyl-1,2,3,6-tetrahydropyridine] | exhibit an arousal reaction typical of cholinomimetics | – |
| 8.3 | CCSCC1=CCN(C)CC1 [Example 4, 4-[(Ethylthio)methyl]-1-methyl-1,2,3,6-tetrahydropyridine] | – | – |
| 140 | CCCOCC1=CCN(C)CC1 [Example 9, 1-Methyl-4-propoxymethyl-1,2,3,6-tetrahydropyridine] | – | – |
| 15 | CSCC1=CCN(C)CC1 [Example 13, 1-Methyl-4-[(methylthio)methyl]-1,2,3,6-tetrahydropyridine] | – | exhibit an arousal reaction typical of cholinomimetics |
| 3900 | COCCC1=CCN(C)CC1 [OX, 4-(methoxyethyl)-1-methyl-1,2,3,6-tetrahydropyridine] | – | – |
